We go through two compounds from US8728808B2, “Multiple inducible gene regulation system” (Intrexon Corporation, priority 2000, dated 2014).

In assay [1] the test system is GAL4CfEcR-DEF/VP16MmRXRα-EF. Nature of the assay: Transactivation of pFRLuc reporter in CHO cells through CfEcR. To be noted: hamster CHO cells, 0.1, 1, 5, or 10 μM ligand, 48 hours, FIG. 2. Format: cell-based, Choristoneura fumiferana. As to the method:
(§1) This construct was prepared as follows. A polynucleotide encoding the D, E, and F domains from spruce budworm Choristoneura fumiferana EcR (“CfEcR-DEF”; SEQ ID NO: 14) was fused to a polynucleotide encoding a GAL4DNA binding domain (“GAL4 DBD”; SEQ ID NO: 2) and placed under the control of a cytomegalovirus (CMV) promoter/enhancer (SEQ ID NO: 3). A polynucleotide encoding the C, D and E domains from green leafhopper Nephotelix cincticeps ecdysone receptor (“NcEcR-CDE”; SEQ ID NO: 15) was fused to a polynucleotide encoding a GAL4DNA binding domain (“GAL4 DBD”; SEQ ID NO: 2) and placed under the control of a cytomegalovirus (CMV) promoter/enhancer (SEQ ID NO: 3). […]
(§2) DNAs corresponding to the dual switch constructs outlined in Examples 1.1 and 1.2 were transfected into mouse NIH3T3 cells (ATCC; Example 1.1) or CHO cells (ATCC; Example 1.2) as follows. […] One μg of reporter construct and 0.25 μg of each receptor construct of the receptor pair to be analyzed were added to the transfection mix. […]
(§3) Cells were harvested 48 hours after adding ligands and reporter activities were quantified using the Dual-luciferase™ reporter assay system from Promega Corporation. […] Luciferase activity was measured using Dual-luciferase™ reporter assay system from Promega Corporation following the manufacturer's instructions. […]

The subject of assay [2] is LexACfEcR-CDEF/VP16MmRXR-LmUSP-EFchimera. In words: Dual switch reporter assay in NIH3T3 cells, luciferase under 8opLexARE. Type of assay: cell-based, Choristoneura fumiferana. As to conditions: mouse NIH3T3 cells, 0.02, 0.1, 0.5, or 2.5 μM ligand, 48 hours, FIG. 1.
Description: (§4) A polynucleotide encoding the C, D, E, and F domains from fruit fly Drosophila melanogaster EcR (“DmEcR-CDEF”; SEQ ID NO: 1) was fused to a polynucleotide encoding a GAL4 DNA binding domain (“Gal4DNABD” or “Gal4 DBD”; SEQ ID NO: 2) and placed under the control of a cytomegalovirus (CMV) promoter/enhancer (SEQ ID NO: 3). A polynucleotide encoding the C, D, E, and F domains from spruce budworm Choristoneura fumiferana EcR (“CfEcR-CDEF”; SEQ ID NO: 4) was fused to a polynucleotide encoding a LexA DNA binding domain (“LexADNABD” or “LexADBD”; SEQ ID NO: 5) and placed under the control of a cytomegalovirus (CMV) promoter/enhancer (SEQ ID NO: 3). […]
as §2, §3
(A reporter such as luciferase makes a cellular process visible.)

In assay [3] the test system is GAL4NcEcR-CDE/VP16MmRXRα-EF. Nature of the assay: Transactivation of pFRLuc reporter in CHO cells through NcEcR. Type of assay: cell-based, Nephotetix cincticeps. As to conditions: hamster CHO cells, 0.1, 1, 5, or 10 μM ligand, 48 hours, FIG. 2. As to the method:
as §1, §2, §3

For assay [4], the target named is T1, GAL4DmEcR-CDEF/VP16MmRXR-LmUSP-EFchimera (Drosophila melanogaster, UniProt P34021).
T1 construct: C, D, E, and F domains from fruit fly Drosophila melanogaster EcR (“DmEcR-CDEF”); expressed in transfected cells; host or cells: mouse NIH3T3 cells
T1 sequence (P34021 other isoform, or with tags, fused parts or gaps): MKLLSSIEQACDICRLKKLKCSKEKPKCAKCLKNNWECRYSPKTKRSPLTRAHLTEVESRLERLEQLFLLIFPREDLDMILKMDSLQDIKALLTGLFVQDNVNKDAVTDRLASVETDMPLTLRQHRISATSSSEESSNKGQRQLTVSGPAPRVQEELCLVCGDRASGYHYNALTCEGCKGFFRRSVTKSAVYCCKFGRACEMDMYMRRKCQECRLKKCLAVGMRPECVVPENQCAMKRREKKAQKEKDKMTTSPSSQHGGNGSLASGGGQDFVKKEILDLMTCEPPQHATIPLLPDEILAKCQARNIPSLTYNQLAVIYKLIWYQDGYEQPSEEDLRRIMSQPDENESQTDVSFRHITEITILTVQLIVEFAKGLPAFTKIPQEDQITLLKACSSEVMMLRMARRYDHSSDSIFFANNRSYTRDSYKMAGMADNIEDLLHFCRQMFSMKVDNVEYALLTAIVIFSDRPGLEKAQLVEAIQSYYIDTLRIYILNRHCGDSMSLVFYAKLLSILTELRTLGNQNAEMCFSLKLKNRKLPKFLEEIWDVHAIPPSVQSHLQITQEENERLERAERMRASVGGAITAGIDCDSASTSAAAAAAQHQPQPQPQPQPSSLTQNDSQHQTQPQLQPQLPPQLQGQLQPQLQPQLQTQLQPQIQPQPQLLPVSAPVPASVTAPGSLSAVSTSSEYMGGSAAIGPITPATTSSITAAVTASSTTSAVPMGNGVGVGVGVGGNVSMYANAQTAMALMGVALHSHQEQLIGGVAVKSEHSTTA
Nature of the assay: Dual switch reporter assay in NIH3T3 cells, SEAP under 6XGAL4RE. Type of assay: cell-based. To be noted: mouse NIH3T3 cells, 0.02, 0.1, 0.5, or 2.5 μM ligand, 48 hours, FIG. 1.
Description: as §4, §2, §3

As for `CC(C)CC[C@@H](O)[C@](C)(O)[C@H]1CC[C@@]2(O)C3=CC(=O)[C@@H]4C[C@@H](O)[C@@H](O)C[C@]4(C)[C@H]3CC[C@]12C` [PonA, ponasterone A], in assay [1], the “induction of luciferase reporter activity regulated by CfEcR-DEF” value is listed as “did not induce reporter gene expression”. The “induction of luciferase reporter activity (LexACfEcR-CDEF switch)” value in assay [2] is given as “only SEAP reporter activity was induced”. For the same compound, the “induction of luciferase reporter activity regulated by NcEcR-CDE” value in assay [3] is on record as “luciferase reporter activity regulated by NcEcR-DE was induced”. Moreover, in assay [4], the “induction of SEAP reporter activity (GAL4DmEcR-CDEF switch)” value is “SEAP reporter activity was induced”.
For `CCc1c(OC)cccc1C(=O)NN(C(=O)c1cc(C)cc(C)c1)C(C)(C)C` [GS™-E, N-(2-ethyl-3-methoxybenzoyl)-N′-(3,5-dimethylbenzoyl)-N′-tert-butylhydrazine] the same measures were “luciferase activity regulated by CfEcR-DEF was induced”, “luciferase activity was induced”, “does not induce reporter gene expression” and “only luciferase activity was induced”.
